Reference: PubChem BioAssay (NCI)
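Five concentrations, 48 hours, 96-well plates. Definition used: TGI = concentration required for complete inhibition of growth.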

Columns and labels:
Test in all cases: NCI-60 cell line screen, 48 h
COLO 205 colon = test system: COLO 205 colon
SK-MEL-28 melanoma = test system: SK-MEL-28 melanoma
HOP-62 NSCLC = test system: HOP-62 NSCLC
SK-MEL-2 melanoma = test system: SK-MEL-2 melanoma
M14 melanoma = test system: M14 melanoma
IGROV1 ovarian = test system: IGROV1 ovarian
786-0 renal = test system: 786-0 renal
NCI/ADR-RES ovarian = test system: NCI/ADR-RES ovarian
MDA-MB-231 breast = test system: MDA-MB-231 breast
CCRF-CEM leukemia = test system: CCRF-CEM leukemia
MCF7 breast = test system: MCF7 breast
CAKI-1 renal = test system: CAKI-1 renal
HCT-15 colon = test system: HCT-15 colon
EKVX NSCLC = test system: EKVX NSCLC
OVCAR-5 ovarian = test system: OVCAR-5 ovarian
NCI-H460 lung = test system: NCI-H460 lung
A498 renal = test system: A498 renal

| Compound | TGI (COLO 205 colon) [µM] | TGI (SK-MEL-28 melanoma) [µM] | TGI (HOP-62 NSCLC) [µM] | TGI (SK-MEL-2 melanoma) [µM] | TGI (M14 melanoma) [µM] | TGI (IGROV1 ovarian) [µM] | TGI (786-0 renal) [µM] | TGI (NCI/ADR-RES ovarian) [µM] | TGI (MDA-MB-231 breast) [µM] | TGI (CCRF-CEM leukemia) [µM] | TGI (MCF7 breast) [µM] | TGI (CAKI-1 renal) [µM] | TGI (HCT-15 colon) [µM] | TGI (EKVX NSCLC) [µM] | TGI (OVCAR-5 ovarian) [µM] | TGI (NCI-H460 lung) [µM] | TGI (A498 renal) [µM] |
| --- | --- | --- | --- | --- | --- | --- | --- | --- | --- | --- | --- | --- | --- | --- | --- | --- | --- |
| COC(=O)[C@@H]1C[C@H]2[C@H](c3ccccc3Br)[C@@H](OC(C)=O)[C@@H](OCc3ccccc3)ON2O1 | > 100 | > 100 | > 100 | > 100 | > 100 | > 100 | > 100 | > 100 | > 100 | > 100 | > 100 | > 100 | > 100 | > 100 | > 100 | > 100 |  |
| O=[N+]([O-])/C(Cl)=C(\Sc1ccccc1)C(Cl)=C(Cl)Cl | 0.608 | 2.76 | 3.68 |  | 0.345 | 2.62 | 1.07 | 0.551 | 0.628 | 0.667 | 1.1 | 3.88 | 1.5 | 3.9 | 3.66 | 3.22 | 3.1 |
| CCCCNC(=O)C1=C(C)NC(C)=C(C(=O)NCCCC)C1 | > 100 | > 100 | > 100 | > 100 | > 100 | > 100 | > 100 | > 100 | > 100 |  | > 100 | > 100 | > 100 | > 100 | > 100 | > 100 | > 100 |
| CN(C)c1ncc(-c2c[nH]c3ccccc23)nc1-c1c[nH]c2ccccc12 | 5.2 | 5.73 | 22 | 12.8 | 3.99 | 13.5 | 4.07 | 88.3 | 4.62 |  | 12.9 | 11 | 16.4 | 10.8 | 16.9 | 4.99 | 4.56 |
| CCOC(=O)C1C(=O)CC(C)(O)C(C(=O)OCC)C1c1ccc(O)c(OC)c1 (configuration not stated) | > 100 | > 100 | > 100 | > 100 |  | > 100 | > 100 | > 100 | > 100 | > 100 | > 100 | > 100 | > 100 | > 100 | > 100 | > 100 | > 100 |
| COc1cc(CSc2ccc(O)cc2)cc(O)c1O | 52.6 | > 100 | > 100 | 79.1 | 43.7 | > 100 | > 100 | 71.3 | 73.5 | 87 | 33.8 | 91.2 | 57.1 | > 100 | 53.4 |  | > 100 |
| S=c1scc(-c2ccc(Cl)cc2)n1OC1CCCC1 | 26.5 | > 100 | > 100 | 44.6 | > 100 | > 100 | > 100 | > 100 | > 100 |  | 81.6 | > 100 | > 100 | > 100 | > 100 | > 100 | 79.8 |
